{
  "source": "patent US5948817A",
  "about": "“Polycyclic ethyl alkylamide melatonergic agents” (Bristol-Myers Squibb Company, priority 1998, dated 1999)",
  "target": "T1, melatonin ML1A receptor (Homo sapiens, UniProt P48039)",
  "T1 construct": "expressed in transfected cells; membrane homogenates",
  "T1 sequence (P48039 whole entry)": "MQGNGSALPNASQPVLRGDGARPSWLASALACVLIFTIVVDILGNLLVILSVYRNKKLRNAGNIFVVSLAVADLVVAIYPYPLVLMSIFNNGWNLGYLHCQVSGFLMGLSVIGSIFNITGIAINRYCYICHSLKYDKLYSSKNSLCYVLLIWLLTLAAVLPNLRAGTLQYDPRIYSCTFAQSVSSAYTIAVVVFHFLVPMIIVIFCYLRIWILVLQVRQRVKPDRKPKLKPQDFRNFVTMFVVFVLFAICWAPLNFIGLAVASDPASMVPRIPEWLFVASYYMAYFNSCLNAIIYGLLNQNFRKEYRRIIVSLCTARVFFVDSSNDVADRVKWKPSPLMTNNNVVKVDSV",
  "assay": "Melatonergic binding (2-[125I]-iodomelatonin, membrane homogenates of NIH-3T3 cells expressing ML1A receptor)",
  "conditions": "37° C. for 1 hour, NIH-3T3 cell membranes, read-out: IC50, binding affinity for melatonin receptors",
  "description": "The compounds of the invention are melatonergic agents. […] Further, the compounds are agonists as determined by their ability, like melatonin, to block the forskolin-stimulated accumulation of cAMP in certain cells. Due to these properties, the compounds and compositions of the invention should be useful as sedatives, chronobiotic agents, anxiolytics, antipsychotics, analgesics, and the like. Specifically, these agents should find use in the treatment of stress, sleep disorders, seasonal depression, appetite regulation, shifts in circadian cycles, melancholia, jet-lag, glaucoma, reproductive disorders, cancer, premenstrual syndrome, immune disorders, inflammatory diseases, neuroendocrine disorders and related conditions.\nThe melatonergic binding properties of compounds of the invention were measured using the following procedure.\n(a) TME=50 mM Tris buffer containing 12.5 mM MgCl2, and 2 mM EDTA, pH 7.4 at 37° C. with concentrated HCl.\n(b) Wash buffer: 20 mM Tris base containing 2 mM MgCl2. pH 7.4 at room temperature.\n(c) 10^-4 M melatonin (10^-5 M final concentration).\n(d) 2-[^125 I]-iodomelatonin, […] final concentration.\nThe melatonin ML1A receptor cDNA was subcloned into pcDNA3 and introduced into NIH-3T3 cells using Lipofectamine. […]",
  "data": [
    {"smiles": "CCC(=O)NCCC1c2cc(OC)ccc2-c2ccc3c(c21)OCO3", "note": "(centres unmarked) [Example 2, N-[2-(8-Methoxy-10H-fluoreno[1,2-d]-1,3-dioxol-10-yl)ethyl]propanamide]", "values": [
      {"measurement": "IC50", "value": "< 25", "unit": "nM"}
    ]},
    {"smiles": "CCC(=O)NCCC1c2ccccc2-c2ccc3c(c21)CCO3", "note": "(centres unmarked) [Example 1, N-[2-(2,10-dihydro-1H-fluoreno[2,1-b]furan-10-yl)ethyl]propanamide]", "values": [
      {"measurement": "IC50", "value": "< 25", "unit": "nM"}
    ]}
  ]
}
